Reference: PubChem BioAssay AID296 (DTP/NCI, 2004)
“And” between values parts separate entries of the source, which are not always exact repeats. Identical values can stand only once. Results filed as inconclusive are left out.

Test system: MX-1 breast xenograft, nude mice, tumor weight T/C
Assay: NCI In Vivo Anticancer Drug Screen. Data for tumor model Human Mammary Carcinoma MX-1 Xenograft (intrarenal inoculation) in NU/NU Swiss (nude) mice
Conditions: endpoint: mean tumor weight change, higher = larger tumour
Procedure: The antitumor activity of compounds was measured in mice bearing transplantable tumors. Survival or tumor size were measured and the results are expressed as the measurement made in the treated group (T) divided by the measurement made in the vehicle treated control group (C). The tumor model used in this assay is Human Mammary Carcinoma MX-1 Xenograft (intrarenal inoculation) in NU/NU Swiss (nude) mice

[1] = dose: 100.0 mg/kg/injection, schedule: Q04DX003 (sc), vehicle: saline with Tween-80
[2] = dose: 300.0 mg/kg/injection, schedule: Q04DX003 (sc), vehicle: saline with Tween-80
[3] = dose: 600.0 mg/kg/injection, schedule: Q04DX003 (sc), vehicle: saline with Tween-80
[4] = dose: 1200.0 mg/kg/injection, schedule: Q04DX003 (sc), vehicle: saline with Tween-80
[5] = dose: 2400.0 mg/kg/injection, schedule: Q04DX003 (sc), vehicle: saline with Tween-80
[6] = dose: 150.0 mg/kg/injection, schedule: Q04DX003 (sc), vehicle: saline with Tween-80
[7] = dose: 300.0 mg/kg/injection, schedule: Q04DX003 (sc), vehicle: Klucel (hydroxypropylcellulose) (HPC)
[8] = dose: 600.0 mg/kg/injection, schedule: Q04DX003 (sc), vehicle: Klucel (hydroxypropylcellulose) (HPC)
[9] = dose: 1200.0 mg/kg/injection, schedule: Q04DX003 (sc), vehicle: Klucel (hydroxypropylcellulose) (HPC)
[10] = dose: 2400.0 mg/kg/injection, schedule: Q04DX003 (sc), vehicle: Klucel (hydroxypropylcellulose) (HPC)
[11] = dose: 100.0 mg/kg/injection, schedule: Q04DX003 (sc), vehicle: Klucel (hydroxypropylcellulose) (HPC)

## CCOC(=O)c1ccc(NN=NCCF)cc1
dose: 150.0 mg/kg/injection, schedule: Q04DX003 (ip), vehicle: distilled water + Tween-80 + alcohol
  T/C: 107 % of control
dose: 300.0 mg/kg/injection, schedule: Q04DX003 (ip), vehicle: distilled water + Tween-80 + alcohol
  T/C: 112 % of control
dose: 600.0 mg/kg/injection, schedule: Q04DX003 (ip), vehicle: distilled water + Tween-80 + alcohol
  T/C: 55 % of control

## CCN(CC)CCOC(=O)Cc1cccc2c(=O)cc(-c3ccccc3)oc12
[1]
  T/C: 107 % of control
dose: 200.0 mg/kg/injection, schedule: Q04DX003 (sc), vehicle: saline with Tween-80
  T/C: 102 % of control

## C[N+](C)(C)c1ncnc2nc[nH]c12
dose: 50.0 mg/kg/injection, schedule: Q01DX010 (sc), vehicle: saline
  T/C: 57 % of control
dose: 100.0 mg/kg/injection, schedule: Q01DX010 (sc), vehicle: saline
  T/C: 38 % of control

## CCCCCC1c2cc(O)ccc2OC1N1CCOCC1 (configuration not stated)
[2]
  T/C: 72 % of control
[3]
  T/C: 71 % of control
[4]
  T/C: 90 % of control
[5]
  T/C: 67 % of control

## [N-]=[N+]=CC(=O)CCC(=O)C=[N+]=[N-]
dose: 3.0 mg/kg/injection, schedule: Q01DX010 (sc), vehicle: DMSO
  T/C: -72 % of control
dose: 6.0 mg/kg/injection, schedule: Q01DX010 (sc), vehicle: DMSO
  T/C: -42 % of control
dose: 12.0 mg/kg/injection, schedule: Q01DX010 (sc), vehicle: DMSO
  T/C: 5 % of control
dose: 15.0 mg/kg/injection, schedule: Q04DX003 (sc), vehicle: DMSO
  T/C: 6 % of control
dose: 15.0 mg/kg/injection, schedule: Q04DX003 (sc), vehicle: saline
  T/C: 23 % of control
dose: 30.0 mg/kg/injection, schedule: Q04DX003 (sc), vehicle: DMSO
  T/C: 3 % of control
dose: 30.0 mg/kg/injection, schedule: Q04DX003 (sc), vehicle: saline
  T/C: 16 % of control
dose: 60.0 mg/kg/injection, schedule: Q04DX003 (sc), vehicle: saline
  T/C: 6 % of control
dose: 120.0 mg/kg/injection, schedule: Q04DX003 (sc), vehicle: DMSO
  T/C: -13 % of control
dose: 120.0 mg/kg/injection, schedule: Q04DX003 (sc), vehicle: saline
  T/C: 8 % of control

## CCCCCCCCCCCCCCCC(=O)OCC1OC(n2ccc(N)nc2=O)C(O)C1O (configuration not stated)
dose: 37.5 mg/kg/injection, schedule: Q04DX003 (sc), vehicle: saline with Tween-80
  T/C: 30 % of control
[3]
  T/C: 11 % of control

## COc1ccc([I+]c2cccc(Cl)c2)cc1Cl
[6]
  T/C: 114 % of control
[2]
  T/C: 100 % of control
[3]
  T/C: 84 % of control
[4]
  T/C: 41 % of control

## COC(=O)Nc1nc2ccc(C3(c4ccc(F)cc4)OCCO3)cc2[nH]1
dose: 50.0 mg/kg/injection, schedule: Q04DX003 (sc), vehicle: saline with Tween-80
  T/C: 100 % of control
[1]
  T/C: 79 % of control

## COc1cccc2c1C(=O)c1c(O)c3c(c(O)c1C2=O)C[C@@](O)(C(C)=O)C[C@@H]3OC1CC(N(C)C)C(O)C(C)O1 (some centres not stated)
dose: 2.0 mg/kg/injection, schedule: Q01DX010 (sc), vehicle: water
  T/C: 293 % of control
dose: 4.0 mg/kg/injection, schedule: Q01DX010 (sc), vehicle: water
  T/C: 120 % of control

## COc1cccc2c1C(=O)c1c(O)c3c(c(O)c1C2=O)C[C@@](O)(C(=O)CO)C[C@@H]3OC1CC(N(C)C)C(O)C(C)O1 (some centres not stated)
dose: 3.0 mg/kg/injection, schedule: Q01DX010 (sc), vehicle: water
  T/C: 211 % of control
dose: 6.0 mg/kg/injection, schedule: Q01DX010 (sc), vehicle: water
  T/C: 227 % of control

## N#CC(=C1C=CC(=NO)C=C1)c1ccc(Cl)cc1
[6]
  T/C: 89 % of control
[2]
  T/C: 122 % of control
[3]
  T/C: 156 % of control

## O=c1cc(CCl)[nH]nc1CCl
dose: 50.0 mg/kg/injection, schedule: Q01DX010 (sc), vehicle: saline with Tween-80
  T/C: 77 % of control
dose: 100.0 mg/kg/injection, schedule: Q01DX010 (sc), vehicle: saline with Tween-80
  T/C: 42 % of control

## COc1cccc2c1C(=O)c1c(O)c3c(c(O)c1C2=O)C[C@@](O)(C(=O)COC(=O)c1cccnc1)C[C@@H]3OC1CC(N)C(O)C(C)O1 (some centres not stated)
dose: 6.0 mg/kg/injection, schedule: Q04DX003 (sc), vehicle: saline
  T/C: 52 % of control and 58 % of control
dose: 12.0 mg/kg/injection, schedule: Q04DX003 (sc), vehicle: saline
  T/C: 15 % of control and 26 % of control
dose: 24.0 mg/kg/injection, schedule: Q04DX003 (sc), vehicle: saline
  T/C: 20 % of control

## CC(=O)OCC1OC([S-])C(OC(C)=O)C(OC(C)=O)C1OC(C)=O.CC[PH+](CC)CC.CC[PH+](CC)CC.[Au].[Au] (configuration not stated)
dose: 0.32 mg/kg/injection, schedule: Q04DX003 (sc), vehicle: Klucel (hydroxypropylcellulose) (HPC)
  T/C: 88 % of control
dose: 0.63 mg/kg/injection, schedule: Q04DX003 (sc), vehicle: Klucel (hydroxypropylcellulose) (HPC)
  T/C: 112 % of control
dose: 1.25 mg/kg/injection, schedule: Q04DX003 (sc), vehicle: Klucel (hydroxypropylcellulose) (HPC)
  T/C: 100 % of control
dose: 2.5 mg/kg/injection, schedule: Q04DX003 (sc), vehicle: Klucel (hydroxypropylcellulose) (HPC)
  T/C: 87 % of control

## COc1cc2cc3cc4cc(OC)c(OC)cc4c(C)[n+]3cc2cc1OC (tested in a mixture with another compound)
dose: 1200.0 mg/kg/injection, schedule: Q04DX003 (sc), vehicle: suspension in saline
  T/C: 61 % of control
dose: 2400.0 mg/kg/injection, schedule: Q04DX003 (sc), vehicle: suspension in saline
  T/C: 84 % of control

## [O-][n+]1c(CN2CCCCC2)nc2cccc3c2c1-c1ccccc1-3
[7]
  T/C: 94 % of control
[8]
  T/C: 102 % of control
[9]
  T/C: 105 % of control
[10]
  T/C: 70 % of control

## Cc1oc2c(C)c3oc(=O)cc(C)c3cc2c1CCl
[2]
  T/C: 109 % of control
[3]
  T/C: 75 % of control
[4]
  T/C: 83 % of control
[5]
  T/C: 54 % of control

## CCOC(=O)CNC(=O)Sc1ccc(C(C)(C)C)cc1
[7]
  T/C: 123 % of control
[8]
  T/C: 88 % of control
[9]
  T/C: 81 % of control
[10]
  T/C: 77 % of control

## CN(C)c1ccc2c(SCC(=O)OCC(=O)[C@@]3(O)CC[C@H]4[C@@H]5CCC6=CC(=O)C=C[C@]6(C)[C@H]5C(=O)C[C@@]43C)c3ccc(N(C)C)cc3nc2c1
dose: 75.0 mg/kg/injection, schedule: Q04DX003 (sc), vehicle: Klucel (hydroxypropylcellulose) (HPC)
  T/C: 53 % of control
dose: 150.0 mg/kg/injection, schedule: Q04DX003 (sc), vehicle: Klucel (hydroxypropylcellulose) (HPC)
  T/C: 92 % of control
[7]
  T/C: 39 % of control
[8]
  T/C: 55 % of control

## CC[C@H]1CN2CCc3cc(OC)c(OC)cc3[C@@H]2C[C@@H]1C[C@H]1NCCc2cc(OC)c(OC)cc21
dose: 2.0 mg/kg/injection, schedule: Q01DX010 (sc), vehicle: saline
  T/C: 114 % of control
dose: 4.0 mg/kg/injection, schedule: Q01DX010 (sc), vehicle: saline
  T/C: 108 % of control

## O=[N+]([O-])/C=C\c1ccc2c(c1)OCO2
dose: 50.0 mg/kg/injection, schedule: Q01DX010 (sc), vehicle: Klucel (hydroxypropylcellulose) (HPC)
  T/C: 214 % of control
dose: 100.0 mg/kg/injection, schedule: Q01DX010 (sc), vehicle: Klucel (hydroxypropylcellulose) (HPC)
  T/C: 91 % of control
dose: 400.0 mg/kg/injection, schedule: Q01DX010 (sc), vehicle: Klucel (hydroxypropylcellulose) (HPC)
  T/C: 86 % of control

## COCC1OC2OC3C(COC)OC(OC4C(COC)OC(OC5C(COC)OC(OC6C(COC)OC(OC7C(COC)OC(OC8C(COC)OC(OC1C(O)C2O)C(O)C8O)C(O)C7O)C(O)C6O)C(O)C5O)C(O)C4O)C(O)C3O (configuration not stated) (tested in a mixture with another compound)
[11]
  T/C: 82 % of control
dose: 200.0 mg/kg/injection, schedule: Q04DX003 (sc), vehicle: Klucel (hydroxypropylcellulose) (HPC)
  T/C: 96 % of control
dose: 400.0 mg/kg/injection, schedule: Q04DX003 (sc), vehicle: Klucel (hydroxypropylcellulose) (HPC)
  T/C: 86 % of control
dose: 800.0 mg/kg/injection, schedule: Q04DX003 (sc), vehicle: Klucel (hydroxypropylcellulose) (HPC)
  T/C: 76 % of control

## [I][Hg][CH2]C1OCCOC1[CH2][Hg][I] (configuration not stated)
[9]
  T/C: 77 % of control
[10]
  T/C: 98 % of control

## CN(C)N=Nc1ccccc1
[11]
  T/C: 36 % of control

## O=c1[nH]cnc2c1ccn2C1OC(CO)C(O)C1O (configuration not stated)
dose: 12.5 mg/kg/injection, schedule: Q04DX003 (sc), vehicle: saline
  T/C: 57 % of control
dose: 25.0 mg/kg/injection, schedule: Q04DX003 (sc), vehicle: saline
  T/C: 71 % of control
